Values of other authors, collected in US11059813B2, “Polymorphic forms of Dasatinib” (BIOCON LIMITED, priority 2017, dated 2021).

Assays:
[1] = co-former alone; for thermal stability: melting points greater than 300° C.
rat = conditions: in vivo, po
[2] = co-former alone

solubility in water | SMILES | chemical stability [1] | thermal stability [1] | LD50 value (rat) | hygroscopicity [2]
poor | Cc1nc(Nc2ncc(C(=O)Nc3c(C)cccc3Cl)s2)cc(N2CCN(CCO)CC2)n1 [Dasatinib, N-(2-chloro-6-methylphenyl)-2-[[6-[4-(2-hydroxyethyl)-1-piperazinyl]-2-methyl-4-pyrimidinyl]amino]-5-thiazole carboxamide] | – | – | – | –
– | Nc1ncnc2nc[nH]c12 [Adenine] | chemically stable | thermally stable | 227 mg/kg | non-hygroscopic
– | Cc1c[nH]c(=O)[nH]c1=O [Thymine] | chemically stable | thermally stable | 3500 mg/kg | non-hygroscopic
